{"source": "patent US8822528B2", "about": "“Monensin derivatives for the treatment and prevention of protozoal infections” (Merial Limited, priority 2010, dated 2014)", "key": {"Eimeria tenella": {"test_system": "Eimeria tenella", "test": "In vitro efficacy against Eimeria tenella in infected MDBK cell culture (schizonts/merozoites counted microscopically)", "type": "cell-based", "design": "Activity in inhibiting development of Eimeria tenella in vitro (schizonts and merozoites) / Presence of schizonts/merozoites (microscopic observation, picture): dose or concentration left out as unconfirmed", "conditions": "for Inhibition of development of Eimeria tenella in cell culture (formation of merozoites): five different concentrations in the presence of the parasite (FIG. 30); for Activity in inhibiting development of Eimeria tenella in vitro (schizonts and merozoites) / Presence of schizonts/merozoites (microscopic observation, picture): second series; for Activity in inhibiting development of Eimeria tenella in vitro (schizonts and merozoites): one concentration of 3.125 (FIG. 30A); for Presence of schizonts/merozoites (microscopic observation, picture): 3.125, FIG. 30B/30C; for Activity towards the parasite Eimeria tenella (summary): summary of in vitro testing of fifteen polyether ionophores; for Development of Eimeria tenella in vitro / Inhibition of the parasite Eimeria tenella: third series; for Development of Eimeria tenella in vitro: at very low concentrations (<0.39 μg/μL) (FIG. 31B); for Inhibition of the parasite Eimeria tenella: at low concentrations (FIG. 31B)", "method": "Once the IC50 concentration was determined, the test was performed on infected cells. The working concentration chosen was always lower than IC50.\nAfter having cultured cells at 40° C. in each well of a 96-well plate, they were treated with a specific concentration (<IC50, allowing the inhibition of parasites in over 50% of cells) of polyether ionophore. Then, the sporozoites of Eimeria tenella were excysted and the cells infected with purified sporozoites. After incubation for 24 hrs at 40° C., the medium was changed. The efficiency of molecules was evaluated microscopically after 40 hrs and 48 hrs. The release of merozoites was noted (FIG. 30B). Thus, in explicit cases, the merozoites released were counted; in ambiguous cases, the quantitative PCR ([…]) will be used. For each test, a positive control of treatment (with monensin 1a) and a positive control of infection was made."}, "MDBK cells": {"test_system": "MDBK cells", "test": "Cytotoxicity testing / IC50 determination on MDBK cells (Cell Titer, tetrazolium to formazan, 96-well)", "type": "cell-based, Bovine", "conditions": "summary statement", "source_text": "Cytotoxicity testing. For the prevention and the treatment, a compound is considered effective when it is non toxic or its toxicity is low for host cells but high for the target (parasite). For cytotoxicity testing and determination of the IC50, the in vitro model is one of the best methods, enabling this type of testing to be carried out directly on cells alone without fear of fatal consequences as in vivo. The IC50 is the maximum concentration at which at least 50% of cells survive following a treatment. All concentrations above it are excluded for the test; values below it, on the other hand, can be tested in order to determine the concentration that will totally or partially eliminate the parasite or inhibit its development. This test consists in testing several concentrations on cell culture in 96-well plate; the concentrations are tested in duplicate, and the cytotoxicity of the molecules is evaluated with special kits based on an oxidation-reduction reaction at the cell-machinery level (mitochondria).\nAs in the MTT kit (Promega), the reagent used is the tetrazolium salt MTT (3-[4,5-dimethylthiazol-2-yl]-2,5-diphenyltetrazolium bromide). The tetrazolium ring that it contains is reduced to formazan by the mitochondrial succinate dehydrogenase of active living cells. The color of the medium thus changes from yellow to purplish-blue. The intensity of this color is proportional to the number of living cells present at the time of testing but also to their metabolic activity. The percentage of living cells is determined from the ratio between the absorbance for the test well and the absorbance for the control well (cells alone).\nInitially, the inhibitory concentration IC50 was determined. It corresponded to the concentration of polyether ionophore allowing the viability of 50% of cells. Bovine cells were cultured and incubated for 24 hrs at 40° C. in the wells of a 96-well plate. Then, a fixed concentration ([…]) of polyether ionophore was added to each well. The cells were incubated at 40° C. for 24 hrs. 20 μL, of “Cell Titer” was added to each well. The cells were again incubated for 30 min to 1 hour at 40° C. before the plate was read in a plate reader at a wavelength of 490 nm (maximum absorption of the formazan). This reading determined the optical density (OD) of each well and allowed access to the percentage of inhibition. I50=(ODtreated/ODcontrol)×100 […]=[1−(ODtreated/ODcontrol)]×100.\nFIG. 26 represents a 96-well plate after adding “Cell Titer”. The intensity of colours depends on the toxicity of the polyether ionophore tested. Increasing color intensity corresponded to increasing number of living cells. […]"}}, "data": [{"smiles": "CC[C@@]1([C@@H]2O[C@@H]([C@H]3O[C@@](O)(CO)[C@H](C)C[C@@H]3C)C[C@@H]2C)CC[C@H]([C@]2(C)CC[C@]3(C[C@H](O)[C@@H](C)[C@@H]([C@@H](C)[C@@H](OC)[C@H](C)C(=O)O)O3)O2)O1", "note": "[Compound 1a, Monensin]", "values": [{"measurement": "Inhibition of development of Eimeria tenella in cell culture (formation of merozoites)", "setting": "Eimeria tenella; first series", "value": "inhibited the formation of merozoites at very low concentrations"}]}, {"smiles": "CCC1(C2OC(C3OC(O)(CO)C(C)CC3C)CC2C)CCC(C2(C)CCC3(CC(O)C(C)C(C(C)C(OC)C(C)C(=O)NCc4ccccc4)O3)O2)O1", "note": "(stereo not drawn) [Compound 3a, 1-benzylamidomonensine]", "values": [{"measurement": "Inhibition of development of Eimeria tenella in cell culture (formation of merozoites)", "setting": "Eimeria tenella; first series", "value": "did not appear to significantly inhibit"}]}, {"smiles": "CCC1(C2OC(C3OC(O)(CO)C(C)CC3C)CC2C)CCC(C2(C)CCC3(CC(O)C(C)C(C(C)C(OC)C(C)C(=O)NCc4ccc(C(=O)OC)cc4)O3)O2)O1", "note": "(stereo not drawn) [Compound 3b, 1-(4-methylbenzoate)methylene Amidomonensine]", "values": [{"measurement": "Inhibition of development of Eimeria tenella in cell culture (formation of merozoites)", "setting": "Eimeria tenella; first series", "value": "did not appear to significantly inhibit"}]}, {"smiles": "CCC1(C2OC(C3OC(O)(CO)C(C)CC3C)CC2C)CCC(C2(C)CCC3(CC(O)C(C)C(C(C)C(OC)C(C)C(=O)NCc4cccc(C(=O)OC)c4)O3)O2)O1", "note": "(stereo not drawn) [Compound 3c, 1-(3-methylbenzoate)methylene Amidomonensin]", "values": [{"measurement": "Activity in inhibiting development of Eimeria tenella in vitro (schizonts and merozoites)", "setting": "Eimeria tenella", "value": "no significant activity"}]}, {"smiles": "CCC1(C2OC(C3OC(O)(CO)C(C)CC3C)CC2C)CCC(C2(C)CCC3(CC(O)C(C)C(C(C)C(OC)C(C)C(=O)NC(C(=O)OC)c4ccc(F)cc4)O3)O2)O1", "note": "(stereo not drawn) [Compound 4c, Methyl 2′-(monensinamido)-2′-(4′-fluorophenyl)acetate]", "values": [{"measurement": "Activity in inhibiting development of Eimeria tenella in vitro (schizonts and merozoites)", "setting": "Eimeria tenella", "value": "no significant activity"}]}, {"smiles": "CCC1(C2OC(C3OC(O)(CO)C(C)CC3C)CC2C)CCC(C2(C)CCC3(CC(O)C(C)C(C(C)C(OC)C(C)C(=O)NCc4ccc(C(=O)O)cc4)O3)O2)O1", "note": "(stereo not drawn) [Compound 6a, 1-(benzoic acid)methylene Amidomonensine]", "values": [{"measurement": "Inhibition of development of Eimeria tenella in cell culture (formation of merozoites)", "setting": "Eimeria tenella; first series", "value": "did not appear to significantly inhibit"}]}, {"smiles": "CCC12CCC(O1)C1(C)CCC3(CC(O)C(C)C(O3)C(C)C(OC)C(C)C(=O)OCC3(O)OC(C(C)CC3C)C3CC(C)C2O3)O1", "note": "(stereo not drawn) [Compound 7, Monensin Lactone]", "values": [{"measurement": "Concentration at which formation of merozoites was inhibited", "setting": "Eimeria tenella; first series, at high concentrations (FIG. 30)", "value": "greater than or equal to 12.5 g/μL"}]}, {"smiles": "CCC1(C2OC(C3OC(CO)(OC)C(C)CC3C)CC2C)CCC(C2(C)CCC3(CC(O)C(C)C(C(C)C(OC)C(C)C(=O)O)O3)O2)O1", "note": "(stereo not drawn) [Compound 8a, 25-Methoxymonensin]", "values": [{"measurement": "Cytotoxicity (summary in words)", "setting": "MDBK cells", "value": "very low cytotoxicities"}, {"measurement": "Presence of schizonts/merozoites (microscopic observation, picture)", "setting": "Eimeria tenella", "value": "absence of schizonts and merozoites"}, {"measurement": "Presence of schizonts/merozoites (microscopic observation, picture)", "setting": "Eimeria tenella; listed as EV 02058", "value": "merozoites not present"}, {"measurement": "Activity in inhibiting development of Eimeria tenella in vitro (schizonts and merozoites)", "setting": "Eimeria tenella", "value": "very high efficacy"}, {"measurement": "Activity towards the parasite Eimeria tenella (summary)", "setting": "Eimeria tenella", "value": "significant activity"}]}, {"smiles": "CCC1(C2OC(C3OC4(COC(=O)CO4)C(C)CC3C)CC2C)CCC(C2(C)CCC3(CC(O)C(C)C(C(C)C(OC)C(C)C(=O)O)O3)O2)O1", "note": "(stereo not drawn) [Compound 12, Oxo-dioxane Monensin]", "values": [{"measurement": "Cytotoxicity (summary in words)", "setting": "MDBK cells", "value": "very low cytotoxicities"}, {"measurement": "Activity towards the parasite Eimeria tenella (summary)", "setting": "Eimeria tenella", "value": "significant activity"}, {"measurement": "Development of Eimeria tenella in vitro", "setting": "Eimeria tenella", "value": "completely inhibited"}]}, {"smiles": "CCC12CCC(O1)C1(C)CCC3(CC(OC)C(C)C(O3)C(C)C(OC)C(C)C(=O)OCC3(OC)OC(C(C)CC3C)C3CC(C)C2O3)O1", "note": "(stereo not drawn) [Compound 14a, 7,25-dimethoxylactone]", "values": [{"measurement": "Presence of schizonts/merozoites (microscopic observation, picture)", "setting": "Eimeria tenella", "value": "merozoites present"}, {"measurement": "Activity in inhibiting development of Eimeria tenella in vitro (schizonts and merozoites)", "setting": "Eimeria tenella", "value": "no significant activity"}]}, {"smiles": "CCC12CCC(O1)C1(C)CCC3(CC(=O)C(C)C(O3)C(C)C(OC)C(C)C(=O)OCC(=O)C(C)CC(C)C(=O)C3CC(C)C2O3)O1", "note": "(stereo not drawn) [Compound 18, Triacetone Lactone]", "values": [{"measurement": "Inhibition of the parasite Eimeria tenella", "setting": "Eimeria tenella", "value": "did not inhibit"}]}, {"smiles": "CCC1(C2OC(C3OC(=O)C(C)CC3C)CC2C)CCC(C2(C)CCC3(CC(=O)C(C)C(C(C)C(OC)C(C)C(=O)O)O3)O2)O1", "note": "(stereo not drawn) [Compound 19, oxo-lactone Monensin]", "values": [{"measurement": "Cytotoxicity (summary in words)", "setting": "MDBK cells", "value": "very low cytotoxicities"}, {"measurement": "Activity in inhibiting development of Eimeria tenella in vitro (schizonts and merozoites)", "setting": "Eimeria tenella", "value": "significant efficacy"}, {"measurement": "Activity towards the parasite Eimeria tenella (summary)", "setting": "Eimeria tenella", "value": "satisfactory and encouraging results"}]}, {"smiles": "CCC1(C2OC(C3OC4(COC(=O)CO4)C(C)CC3C)CC2C)CCC(C2(C)CCC3(CC(=O)C(C)C(C(C)C(OC)C(C)C(=O)O)O3)O2)O1", "note": "(stereo not drawn) [Compound 26, 7-oxo-monensin Oxodioxane]", "values": [{"measurement": "Inhibition of the parasite Eimeria tenella", "setting": "Eimeria tenella", "value": "did not inhibit"}]}, {"smiles": "CCC1(C2OC(C3OC(CO)(OCC(=O)O)C(C)CC3C)CC2C)CCC(C2(C)CCC3(CC(O)C(C)C(C(C)C(OC)C(C)C(=O)O)O3)O2)O1", "note": "(stereo not drawn) [Compound 27, O-25-glycolic Acid Monensin]", "values": [{"measurement": "Cytotoxicity (summary in words)", "setting": "MDBK cells", "value": "very low cytotoxicities"}, {"measurement": "Activity towards the parasite Eimeria tenella (summary)", "setting": "Eimeria tenella", "value": "significant activity"}, {"measurement": "Development of Eimeria tenella in vitro", "setting": "Eimeria tenella", "value": "completely inhibited"}]}, {"smiles": "CCC1(C2OC(C(O)C(C)CC(C)C(=O)O)CC2C)CCC(C2(C)CCC3(CC(=O)C(C)C(C(C)C(OC)C(C)C(=O)O)O3)O2)O1", "note": "(stereo not drawn) [Compound 31, 7-oxo, 21-hydroxy, 25-acid Monensin]", "values": [{"measurement": "Concentration at which significantly effective against the parasite", "setting": "Eimeria tenella; third series (FIG. 31B)", "value": "greater than 1.56 g/μL"}, {"measurement": "Inhibition of the parasite Eimeria tenella", "setting": "Eimeria tenella", "value": "did not inhibit"}]}]}
